From US12655130B2 (ASSEMBLY BIOSCIENCES, INC., priority 2020, dated 2026)

test system: HBV viral load (viral production from HepAD38 cells); assay: Activity of test compounds on viral production from HepAD38 cells (viral load by qPCR of HBV core sequence); assay type: cell-based; conditions: Hepatitis B virus, HePAD38, 120 h, viral load lowering, 5 days, qPCR of supernatant, read-out: VL HepAD38 EC50 range
In short: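 EC50 and CC50 come from four-parameter logistic fits: HBV core DNA in supernatant by TaqMan qPCR against DNA standards, normalised to DMSO controls, and cell viability by CellTiter-Glo. Cells were plated at 50,000/well without tetracycline (2% FBS) and exposed to compounds (highest 10 μM) for 5 days, 37 °C.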

Structure (SMILES) | EC50
CC(C)c1cc(C2(O)CC3CC(c4ncn(C)c4C(=O)Nc4ccc(F)c(Cl)c4)CC3C2)n(C)n1 (stereo not shown) [Example 94, N-(3-chloro-4-fluorophenyl)-4-(5-hydroxy-5-(3-isopropyl-1-methyl-1H-pyrazol-5-yl)octahydropentalen-2-yl)-1-methyl-1H-imidazole-5-carboxamide] | < 10 nM
CC(=O)c1nn(C)cc1C1(O)CC2CC(c3ncn(C)c3C(=O)Nc3ccc(F)c(Cl)c3)CC2C1 (stereo not shown) [Example 183, 4-(5-(3-Acetyl-1-methyl-1H-pyrazol-4-yl)-5-hydroxyoctahydropentalen-2-yl)-N-(3-chloro-4-fluorophenyl)-1-methyl-1H-imidazole-5-carboxamide] | 10 to 50 nM
CCC(O)COc1cc(C2(O)CC3CC(c4ncn(C)c4C(=O)Nc4ccc(F)c(Cl)c4)CC3C2)n(C)n1 (stereo not shown) [Example 203, N-(3-Chloro-4-fluorophenyl)-4-(5-hydroxy-5-(3-(2-hydroxybutoxy)-1-methyl-1H-pyrazol-5-yl)octahydropentalen-2-yl)-1-methyl-1H-imidazole-5-carboxamide] | < 10 nM
CN(C)Cc1cnn(C)c1C1(O)CC2CC(c3ncn(C)c3C(=O)Nc3ccc(F)c(Cl)c3)CC2C1 (single isomer, unassigned) [Example 70, N-(3-Chloro-4-fluorophenyl)-4-(5-(4-((dimethylamino)methyl)-1-methyl-1H-pyrazol-5-yl)-5-hydroxyoctahydropentalen-2-yl)-1-methyl-1H-imidazole-5-carboxamide] | < 10 nM
Cn1cnc(C2CC3CC(=O)CC3C2)c1C(=O)Nc1ccc(F)c(Cl)c1 (single isomer, unassigned) [Example 1, N-(3-Chloro-4-fluorophenyl)-1-methyl-4-(5-oxooctahydropentalen-2-yl)-1H-imidazole-5-carboxamide] | < 10 nM
Cn1cnc(C2CC3CC(O)(c4ccc(F)cc4)CC3C2)c1C(=O)Nc1ccc(F)c(Cl)c1 (stereo not shown) [Example 7, N-(3-Chloro-4-fluorophenyl)-4-(5-(4-fluorophenyl)-5-hydroxyoctahydropentalen-2-yl)-1-methyl-1H-imidazole-5-carboxamide] | < 10 nM
Cn1cnc(C2CC3CC(O)(c4c(C(F)(F)F)cnn4C)CC3C2)c1C(=O)Nc1ccc(F)c(Cl)c1 (stereo not shown) [Example 99, N-(3-chloro-4-fluorophenyl)-4-(5-hydroxy-5-(1-methyl-4-(trifluoromethyl)-1H-pyrazol-5-yl)octahydropentalen-2-yl)-1-methyl-1H-imidazole-5-carboxamide] | < 10 nM
Cn1cc(C2(O)CC3CC(c4ncn(C)c4C(=O)Nc4ccc(F)c(Cl)c4)CC3C2)c(C#N)n1 (stereo not shown) [Example 180, N-(3-Chloro-4-fluorophenyl)-4-(5-(3-cyano-1-methyl-1H-pyrazol-4-yl)-5-hydroxyoctahydropentalen-2-yl)-1-methyl-1H-imidazole-5-carboxamide] | < 10 nM
CCn1nc(N)cc1C1(O)CC2CC(c3ncn(C)c3C(=O)Nc3ccc(F)c(Cl)c3)CC2C1 (stereo not shown) [Example 76] | < 10 nM
Cc1nc(C2CC3CC(O)(C(F)(F)F)CC3C2)c(C(=O)Nc2ccc(F)c(Cl)c2)n1C (stereo not shown) [Example 26, N-(3-Chloro-4-fluorophenyl)-4-(5-hydroxy-5-(trifluoromethyl)octahydropentalen-2-yl)-1,2-dimethyl-1H-imidazole-5-carboxamide] | 10 to 50 nM
CN(C)C1CC2CC(c3ncn(C)c3C(=O)Nc3ccc(F)c(Cl)c3)CC2C1 (stereo not shown) [Example 43, 5-[5-(Dimethylamino)-1,2,3,3a,4,5,6,6a-octahydropentalen-2-yl]-N-(3-chloro-4-fluorophenyl)-3-methyl-4-imidazolecarboxamide] | 10 to 50 nM
Cn1cnc(C2CC3CC(N4CCCCC4)CC3C2)c1C(=O)Nc1ccc(F)c(Cl)c1 (stereo not shown) [Example 46, 5-[-5-(1-Piperidinyl)-1,2,3,3a,4,5,6,6a-octahydropentalen-2-yl]-N-(3-chloro-4-fluorophenyl)-3-methyl-4-imidazolecarboxamide] | 10 to 50 nM
O=C(Nc1ccc(F)c(Cl)c1)c1c(C2CC3CC(O)(C(F)(F)F)CC3C2)nc2n1CCC2 (single isomer, unassigned) [Example 34, N-(3-Chloro-4-fluorophenyl)-2-(5-hydroxy-5-(trifluoromethyl)octahydropentalen-2-yl)-6,7-dihydro-5H-pyrrolo[1,2-a]imidazole-3-carboxamide] | 10 to 50 nM
Cn1cnc(C2(O)CC3CC(c4ncn(C)c4C(=O)Nc4ccc(F)c(Cl)c4)CC3C2)c1 (single isomer, unassigned) [Example 4, N-(3-Chloro-4-fluorophenyl)-4-(5-hydroxy-5-(1-methyl-1H-imidazol-4-yl)octahydropentalen-2-yl)-1-methyl-1H-imidazole-5-carboxamide] | < 10 nM
CCOC(=O)CC1CC2CC(c3ncn(C)c3C(=O)Nc3ccc(F)c(Cl)c3)CC2C1 (stereo not shown) [Example 16, Ethyl 2-(5-(5-((3-chloro-4-fluorophenyl)carbamoyl)-1-methyl-1H-imidazol-4-yl)octahydropentalen-2-yl)acetate] | < 10 nM
Cn1cnc(C2CC3CC(O)(c4nn(C)c(C(F)(F)F)c4Br)CC3C2)c1C(=O)Nc1ccc(F)c(Cl)c1 (stereo not shown) [Example 142, 4-(5-(4-Bromo-1-methyl-5-(trifluoromethyl)-1H-pyrazol-3-yl)-5-hydroxyoctahydropentalen-2-yl)-N-(3-chloro-4-fluorophenyl)-1-methyl-1H-imidazole-5-carboxamide] | < 10 nM
CN1CCn2c(nc(C3CC4CC(O)CC4C3)c2C(=O)Nc2ccc(F)c(Cl)c2)C1 (stereo not shown) [Example 91, N-(3-chloro-4-fluorophenyl)-2-(5-hydroxyoctahydropentalen-2-yl)-7-methyl-5,6,7,8-tetrahydroimidazo[1,2-a]pyrazine-3-carboxamide] | < 10 nM
Cn1cnc(C2CC3CC(O)(c4c([N+](=O)[O-])cnn4C)CC3C2)c1C(=O)Nc1ccc(F)c(Cl)c1 (stereo not shown) [Example 127, N-(3-chloro-4-fluorophenyl)-4-(5-hydroxy-5-(1-methyl-4-nitro-1H-pyrazol-5-yl)octahydropentalen-2-yl)-1-methyl-1H-imidazole-5-carboxamide] | 10 to 50 nM
Cn1cnc(C2CC3CC(O)(c4c[nH]nc4C(F)(F)F)CC3C2)c1C(=O)Nc1ccc(F)c(C#N)c1 (stereo not shown) [Example 193, N-(3-Cyano-4-fluorophenyl)-4-(5-hydroxy-5-(3-(trifluoromethyl)-1H-pyrazol-4-yl)octahydropentalen-2-yl)-1-methyl-1H-imidazole-5-carboxamide] | < 10 nM
CCn1nccc1C1(O)CC2CC(c3ncn(C)c3C(=O)Nc3ccc(F)c(Cl)c3)CC2C1 (stereo not shown) [Example 119, N-(3-chloro-4-fluorophenyl)-4-(5-(1-ethyl-1H-pyrazol-5-yl)-5-hydroxyoctahydropentalen-2-yl)-1-methyl-1H-imidazole-5-carboxamide] | < 10 nM
Cn1nc(C(F)(F)F)cc1C1(O)CC2CC(c3nc(Cl)n(C)c3C(=O)Nc3ccc(F)c(Cl)c3)CC2C1 (stereo not shown) [Example 111, 2-Chloro-N-(3-chloro-4-fluorophenyl)-4-(5-hydroxy-5-(1-methyl-3-(trifluoromethyl)-1H-pyrazol-5-yl)octahydropentalen-2-yl)-1-methyl-1H-imidazole-5-carboxamide] | 10 to 50 nM
CN(Cc1ccccc1)c1nc(C2CC3CC(O)CC3C2)c(C(=O)Nc2ccc(F)c(Cl)c2)n1C (stereo not shown) [Example 48, 2-(benzyl(methyl)amino)-N-(3-chloro-4-fluorophenyl)-4-(5-hydroxyoctahydropentalen-2-yl)-1-methyl-1H-imidazole-5-carboxamide] | 50 to 500 nM
CN(C)c1ccn(CC2(O)CC3CC(c4ncn(C)c4C(=O)Nc4ccc(F)c(Cl)c4)CC3C2)n1 (stereo not shown) [Example 96, N-(3-chloro-4-fluorophenyl)-4-(5-((3-(dimethylamino)-1H-pyrazol-1-yl)methyl)-5-hydroxyoctahydropentalen-2-yl)-1-methyl-1H-imidazole-5-carboxamide] | < 10 nM
CC(C)n1nc([N+](=O)[O-])cc1C1(O)CC2CC(c3ncn(C)c3C(=O)Nc3ccc(F)c(Cl)c3)CC2C1 (stereo not shown) [Example 164, N-(3-Chloro-4-fluorophenyl)-4-(5-hydroxy-5-(1-isopropyl-3-nitro-1H-pyrazol-5-yl)octahydropentalen-2-yl)-1-methyl-1H-imidazole-5-carboxamide] | < 10 nM
Cn1cnc(C2CC3CC(O)(c4c(F)c(N)nn4C)CC3C2)c1C(=O)Nc1ccc(F)c(Cl)c1 (stereo not shown) [Example 52, 4-(5-(3-Amino-4-fluoro-1-methyl-1H-pyrazol-5-yl)-5-hydroxyoctahydropentalen-2-yl)-N-(3-chloro-4-fluorophenyl)-1-methyl-1H-imidazole-5-carboxamide] | < 10 nM
Cn1cnc(C2CC3CC(N)CC3C2)c1C(=O)Nc1ccc(F)c(Cl)c1 (stereo not shown) [Example 13, 4-(5-Aminooctahydropentalen-2-yl)-N-(3-chloro-4-fluorophenyl)-1-methyl-1H-imidazole-5-carboxamide] | 10 to 50 nM

same assay, conditions: read-out: VL HepAD38 EC50 range, viral load lowering, 5 days, qPCR of supernatant

Structure (SMILES) | EC50
O=C1CC2CC(c3nc4n(c3C(=O)Nc3ccc(F)c(Cl)c3)CCCC4)CC2C1 (stereo not shown) [Example 40, 2-[-5-Oxo-2,3,3a,4,6,6a-hexahydro-1H-pentalen-2-yl]-N-(3-chloro-4-fluorophenyl)-5,6,7,8-tetrahydroimidazo[1,2-a]pyridine-3-carboxamide] | 50 to 500 nM

same assay, conditions: viral load lowering, 5 days, qPCR of supernatant, read-out: VL HepAD38 EC50 range

Structure (SMILES) | EC50
CC(O)COc1cc(C2(O)CC3CC(c4ncn(C)c4C(=O)Nc4ccc(F)c(Cl)c4)CC3C2)n(C)n1 (single isomer, unassigned) [Example 210, N-(3-Chloro-4-fluorophenyl)-4-(5-hydroxy-5-(3-(2-hydroxypropoxy)-1-methyl-1H-pyrazol-5-yl)octahydropentalen-2-yl)-1-methyl-1H-imidazole-5-carboxamide] | < 10 nM
